Reference: patent US20240279304A1, “DSG2 COMPOSITIONS AND METHODS” (Arvada Therapeutics, Inc., priority 2021, published 2024)

What was measured:
[1] = test system: human iPSC cardiomyocytes; assay: CiPA multielectrode array (MEA) assay, sodium spike; format: cell-based; conditions: anti-DSG2 antibodies 0.5 μg/mL; lidocaine 10 μM; negative controls 0.5 g/mL as printed; 0 to 96 hours
Procedure: To determine the effect of anti-DSG2 antibodies in cardiomyocytes, the cardiac in vitro proarrhythmia (CiPA) assay was performed (Sager et al. Am Heart J 2014; 167:292-300; the contents of which are herein incorporated by reference in its entirety). CiPA is envisioned to consist of four components: (1) an evaluation of the effects of test agents on cardiac ion channel assays; (2) in silico modeling of the cardiac action potential based on the ion channel results to integrate the data with cardiac function; (3) experimental measurement of test agent effects in human ventricular myocytes to confirm the modeling result; and (4) scoring the results. […] The sodium spike quantified below is a measurement of the specific sodium channel current in the cardiomyocyte and is also described in Blinova K, et al. Cell Rep. […] The parameters evaluated include measuring a change in the spike in the component of electrical signal propagation (e.g. sodium spike) and cell index—a function of cell impedance and cell number. […]
Commercially available anti-DSG2 antibodies were tested in the cardiomyocyte CiPA assay. […] The voltage (μV) is measured at time intervals of 0, 1 hour, 12 hours, 24 hours, 48 hours, 72 hours, and 96 hours. […]

[2] = test system: human iPSC-derived cardiomyocytes; assay: CiPA multielectrode array (MEA) assay, cell index; format: cell-based
Procedure: To determine the effect of anti-DSG2 antibodies in cardiomyocytes, the cardiac in vitro proarrhythmia (CiPA) assay was performed (Sager et al. Am Heart J 2014; 167:292-300; the contents of which are herein incorporated by reference in its entirety). CiPA is envisioned to consist of four components: (1) an evaluation of the effects of test agents on cardiac ion channel assays; (2) in silico modeling of the cardiac action potential based on the ion channel results to integrate the data with cardiac function; (3) experimental measurement of test agent effects in human ventricular myocytes to confirm the modeling result; and (4) scoring the results. The multielectrode array (MEA) assay is a component of CiPA which uses human induced pluripotent stem cell (iPSC)-derived cardiomyocytes to evaluate two-dimensional excitation propagation by recording spontaneous ECG-like field potentials. The sodium spike quantified below is a measurement of the specific sodium channel current in the cardiomyocyte and is also described in Blinova K, et al. Cell Rep. 2018 Sep. 25; 24(13):3582-3592 (the contents of which are herein incorporated by reference in its entirety). CiPA is considered a clinically validated cardiomyocyte-based assay by the FDA and the EMA. […] The parameters evaluated include measuring a change in the spike in the component of electrical signal propagation (e.g. sodium spike) and cell index—a function of cell impedance and cell number. Changes in sodium spike may be indicative of arrhythmia and a change in cell index (CI) may be indicative of changes to cell connectivity.
Cell index is inversely related the cell layer's conductivity to electrical current. Increased conductivity across the cell layer, may indicate that there are more gaps in the cell layer, implying that the cells are less well-adhered to each other. Thus, increased conductivity across the cell layer, may result in lower cell index. […] The concentration of anti-DSG2 antibodies varied from 0.00005 μg/mL to 5 μg/mL. […] The concentration of lidocaine varied from 3 μM to 100 μM. […] The concentration of anti-DSG2 antibodies varied from 0.00005 μg/mL to 5 μg/mL.

anti-DSG2 antibody [3] = assay: anti-DSG2 antibody MSD assay; inhibition of the antibody signal by the fusion polypeptide; antibody at 200 ng/mL
anti-DSG2 antibody [4] = assay: anti-DSG2 antibody MSD assay; inhibition of the antibody signal by the fusion polypeptide; antibody at 1000 ng/mL

Row | % inhibition (anti-DSG2 antibody [3]) [%] | % inhibition (anti-DSG2 antibody [4]) [%] | Compound | effect on cardiomyocyte sodium spike (in words) [1] | Cell Index (+/- SEM) ([2]; 3 μM) | Cell Index (+/- SEM) ([2]; 10 μM) | Cell Index (+/- SEM) ([2]; 30 μM) | Cell Index (+/- SEM) ([2]; 100 μM) | effect on cell index (in words) ([2]; lidocaine 3 μM to 100 μM, antibodies 0.00005 μg/mL to 5 μg/mL)
1 | – | – | CCN(CC)CC(=O)Nc1c(C)cccc1C [Lidocaine, lidocaine] | dampen the sodium spike | 19.9 (2.84) | 20.2 (3.1) | 18.7 (2.0) | 11.0 (4.8) | marked reduction in cell index and likely cell death
2 | 63.8 | 88.4 | recombinant human desmoglein-2 Fc chimera protein, CF (DSG2FP#1) (Fc fusion) | – | – | – | – | – | –
